Experimental data published in patent US20100303727A1, “OPTICAL IMAGING AGENTS” (priority 2007, published 2010).
Like-named read-outs stand apart in the source and are kept apart here. Bridge positions count the residues as written; N and C are the ends. Peptide text beside a SMILES is read from it. * marks the point of attachment. X3 = CC[N+]1=C(/C=C/C=C/C=C2/N(CCCCCC(=O)*)c3ccc(S(=O)(=O)O)cc3C2(C)C)C(C)(C)c2cc(S(=O)(=O)[O-])ccc21; X1 = C[N+]1=C(/C=C/C=C/C=C2/N(CCCCCC(=O)*)c3ccccc3C2(C)C)C(C)(C)c2cc(S(=O)(=O)[O-])ccc21; X2 = NC(=O)COCC(=O)NCCOCCOCCOCCN*

Assays:
[1] = format: in vitro ADME, mouse
Description: Mouse plasma (non-sterile) was purchased from Rockland, Pa., USA. This plasma is stabilized with heparin, sodium. The substance was dissolved in PBS and plasma, respectively, at concentrations 0.1/0.2 mg/mL. Both blank samples (solvent without peptide) and peptide dissolved in plasma/PBS were incubated at 37° C. for about 4 hours. After incubation the proteins were removed by ultrafiltration using non-sterile Ultrafree®-MC centrifuge tubes with filter insert from Millipore Co. (Amicon). The cut-off of the filters was 30,000 NMWL Prior to centrifugation the plasma samples were diluted 1:1 with water. The samples were analysed by HPLC using visible detection.
The substance was dissolved in PBS, concentration 0.1 mg/mL. The fluorescence intensity of the ultracentrifuged samples was measured using Fluoroskan Ascent® FL equipped with plate reader (Thermo Labsystems Oy, Finland). Excitation wavelength was at 646 nm and emission wavelength at 678 nm and measurements were performed at two different concentrations of the substance, 6.5 μg/mL and 23 μg/mL plasma.
The Ultimate 3000 micro liquid chromatograph equipped with UV-Vis detector was applied in this study. The solution has an intense bluish colour and absorbs well at 650 nm.
The chromatography was performed on an X-Terra RP18 column 2.1×150 mm, 3.5 μm particles from Waters using a gradient elution of acetonitrile (ACN) and phosphate buffer (20 mM, pH 7.1); 650 nm detection; flow rate 0.1 mL/min; injection volume: 5 μL. Gradient: initiated at 22% ACN in buffer, increasing linearly to 50% ACN over 12 min; rapid linear increase of gradient to 90% ACN for 2 min followed; then equilibration to the starting mixture. Total analysis time was 20 min, with a retention time for the main peak of ˜9 min. Degradation/impurities were reported as changes in purity of the main peak.

αVβ3 receptor = biological target: T1, αVβ3 receptor (Homo sapiens, UniProt P05106+P06756); assay: Competition assay using 125I-echistatin on EA-Hy926 membranes; format: binding; conditions: for Ki: competition with 125I-Echistatin, EA-Hy926 membranes
T1 construct: endogenous in cells; host or cells: EA-Hy926 human endothelial cell line (membrane preparation)
Description: A classical competition assay using ^125I-echistatin was performed in order to check the affinity (Ki) of the RGD-Cy^D conjugates (Compounds 1 to 8) towards membranes expressing. the αVβ3 receptor. Ki was determined in receptor competition studies with membranes prepared from human endothelial cells. Membranes from the human endothelial adenocarcinoma cell line EA-Hy926 that express several integrins including αVβ3 were prepared and used as a receptor source. Competitive binding of ^125I-Echistatin, a known […] for several integrins including αVβ3, was carried out with varying concentrations of cold compounds.

[2] = human, plasma
collagen = format: binding; conditions: 1 h 37° C., Ex646/Em678 nm
Description: Commercially available collagen-covered 96-well plates were used (BD Biocoat, Art. code BDAA 356649, Becton, Dickinson Biosciences, Two Oak Park, Bedford, Mass. 01730). Triplicate wells were made of each test Compound at 30 nM, 100 nM or 300 nM (1000 nM included in some cases), and the plate was incubated in the plate reader for one hour at 37° C. with shaking every other minute*. The volume in each well was 200 μl. At the end of the incubation, 150 μl supernatant was transferred to an untreated 96-well plate, and the fluorescence was read with excitation at 646 nm and emission at 678 nm wavelengths.
For calculation of the degree of binding, the fluorescence from the supernatants was compared to the fluorescence from 150 μl aliquots with the same initial concentrations. In all cases, median values from 3 wells were used.

HT-29 tumour = assay: In vivo optical imaging of HT-29 tumour-bearing mice; conditions: mean tumour region intensity divided by mean muscle region intensity, iv injection, HT-29 tumours s.c.
Description: Female BALB c/A nude (Bom) mice were used in the study. The use of the animals was approved by the local ethics committee. As the animals were immunocompromised, they were housed in individually ventilated cages (IVC, Scanbur BK) supplied with HEPA filtered air. The animals had ad libitum access to “Rat and Mouse nr. 3 Breeding” diet (Scanbur BK) and tap water acidified by addition of HCl to a molar concentration of 1 mM (pH 3.0). In order to protect the animals during handling and all procedures before the imaging procedure, they were handled under conditions of laminar HEPA filtered air.
The animals were allowed an acclimatisation period of at least 5 days before being injected s.c. with HT-29 tumour cell suspensions at two sites (shoulder and left, lower flank) with a nominal dose of 2.5-3×10^6 cells per injection in a volume of 100 μl. The s.c. injections were performed under light gas anaesthesia. […]
Image analysis was performed with custom written MATLAB software. […] The mean signal of the pixel values inside each region was calculated. The mean signal and pixel standard deviation was calculated.
Based on the in-vitro data from example 7-10, in-vivo results from compounds 1, 2, 4 and 6 are presented. Tumour enhancement is quantified by a target to background ratio (TBR) defined as the ratio of the mean tumour region intensity divided by the mean muscle region intensity.

| SMILES | Ki (αVβ3 receptor) | Ki (in words) (αVβ3 receptor; summary of Example 10) | Collagen binding (% bound) (collagen; initial conc. 30 nM) | Collagen binding (% bound) (collagen; initial conc. 100 nM) | Collagen binding (% bound) (collagen; initial conc. 300 nM) | Collagen binding (% bound) (collagen; initial conc. 1000 nM) | % main peak area (after 4 h incubation in mouse plasma) [1] | PPB (ranking in words) [2] | Target to background ratio (TBR) (HT-29 tumour) |
| --- | --- | --- | --- | --- | --- | --- | --- | --- | --- |
| C[N+]1=C(/C=C/C=C/C=C2/N(CCCCCC(=O)NCCCC[C@@H]3NC(=O)CSC[C@@H](C(=O)NCCOCCOCCOCCNC(=O)COCC(N)=O)NC(=O)[C@H](Cc4ccccc4)NC(=O)[C@@H]4CSSC[C@H](NC3=O)C(=O)N[C@@H](CCCNC(=N)N)C(=O)NCC(=O)N[C@@H](CC(=O)O)C(=O)N4)c3ccccc3C2(C)C)C(C)(C)c2cc(S(=O)(=O)[O-])ccc21 [Compound 3, RGD-Cy5(1)) Dye Conjugate] ({CH2CO}-K(X1)CRGDCFC-X2; disulfide 2-6; thioether N-8) | 2.6 nM |  |  |  |  |  |  | highest PPB |  |
| CC[N+]1=C(/C=C/C=C/C=C2/N(CCCCCC(=O)NCCCC[C@@H]3NC(=O)CSC[C@@H](C(=O)NCCOCCOCCOCCNC(=O)COCC(N)=O)NC(=O)[C@H](CCCNC(=N)N)NC(=O)[C@@H]4CSSC[C@H](NC3=O)C(=O)NCC(=O)N[C@@H](CC(=O)O)C(=O)N[C@@H](Cc3ccccc3)C(=O)N4)c3ccc(S(=O)(=O)O)cc3C2(C)C)C(C)(C)c2cc(S(=O)(=O)[O-])ccc21 [Compound 2, neg-RGD-[Cy5(2)] Dye Conjugate] ({CH2CO}-K(X3)CGDFCRC-X2; disulfide 2-6; thioether N-8) |  |  | 87% | 81.1% | 83% |  |  |  | 1.14 |
| CC[N+]1=C(/C=C/C=C/C=C2/N(CCCCCC(=O)NCCCC[C@@H]3NC(=O)CSC[C@@H](C(=O)NCCOCCOCCOCCNC(=O)COCC(N)=O)NC(=O)[C@H](Cc4ccccc4)NC(=O)[C@@H]4CSSC[C@H](NC3=O)C(=O)N[C@@H](CCCNC(=N)N)C(=O)NCC(=O)N[C@@H](CC(=O)O)C(=O)N4)c3ccc(S(=O)(=O)O)cc3C2(C)C)C(C)(C)c2cc(S(=O)(=O)[O-])ccc21 [Compound 1, RGD-[Cy5(2)] Dye Conjugate] ({CH2CO}-K(X3)CRGDCFC-X2; disulfide 2-6; thioether N-8) | 1.9 nM |  |  |  |  |  |  |  |  |
| CC1(CCCCS(=O)(=O)O)C(/C=C/C=C/C=C2/N(CCCCCC(=O)NCCCC[C@@H]3NC(=O)CSC[C@@H](C(=O)NCCOCCOCCOCCNC(=O)COCC(N)=O)NC(=O)[C@H](Cc4ccccc4)NC(=O)[C@@H]4CSSC[C@H](NC3=O)C(=O)N[C@@H](CCCNC(=N)N)C(=O)NCC(=O)N[C@@H](CC(=O)O)C(=O)N4)c3ccc(S(=O)(=O)O)cc3C2(C)C)=[N+](CCCCS(=O)(=O)O)c2ccc(S(=O)(=O)O)cc21 (stereo partly drawn) [Compound 4, RGD-Cy5** Dye Conjugate] | 1.8 nM |  |  |  |  |  | 100% | lowest |  |

Further lines, with some results ahead:

| Ki (αVβ3 receptor) | Ki (in words) (αVβ3 receptor; summary of Example 10) | Collagen binding (% bound) (collagen; initial conc. 30 nM) | Collagen binding (% bound) (collagen; initial conc. 100 nM) | Collagen binding (% bound) (collagen; initial conc. 300 nM) | Collagen binding (% bound) (collagen; initial conc. 1000 nM) | SMILES | % main peak area (after 4 h incubation in mouse plasma) [1] | PPB (ranking in words) [2] | Target to background ratio (TBR) (HT-29 tumour) |
| --- | --- | --- | --- | --- | --- | --- | --- | --- | --- |
| 1.6 nM |  |  |  |  |  | CC1(C)C(/C=C/C=C/C=C2/N(CCCS(=O)(=O)O)c3ccc(S(=O)(=O)O)cc3C2(C)CCCCCC(=O)NCCCC[C@@H]2NC(=O)CSC[C@@H](C(=O)NCCOCCOCCOCCNC(=O)COCC(N)=O)NC(=O)[C@H](Cc3ccccc3)NC(=O)[C@@H]3CSSC[C@H](NC2=O)C(=O)N[C@@H](CCCNC(=N)N)C(=O)NCC(=O)N[C@@H](CC(=O)O)C(=O)N3)=[N+](CCCS(=O)(=O)O)c2ccc(S(=O)(=O)O)cc21 (stereo partly drawn) [Compound 6, RGD-Alexa 647 Dye Conjugate] | 100% | lowest |  |
| 7.4 nM | slightly higher Ki value |  |  |  |  | CC1(CCCCS(=O)(=O)[O-])C(/C=C/C=C/C=C2\N(CCCCS(=O)(=O)O)c3c(F)c(F)c(F)c(F)c3C2(C)CCCCS(=O)(=O)O)=[N+](CCCCCC(=O)NCCCC[C@@H]2NC(=O)CSC[C@@H](C(=O)NCCOCCOCCOCCNC(=O)COCC(N)=O)NC(=O)[C@H](Cc3ccccc3)NC(=O)[C@@H]3CSSC[C@H](NC2=O)C(=O)N[C@@H](CCCNC(=N)N)C(=O)NCC(=O)N[C@@H](CC(=O)O)C(=O)N3)c2c(F)c(F)c(F)c(F)c21 (stereo partly drawn) [Compound 7] | 70% | highest PPB |  |
|  |  | 83.6% | 96.1% | 50.9% | 30.4% | CC1(CCCCS(=O)(=O)O)C(/C=C/C=C/C=C2\N(CCCCCC(=O)NCCCC[C@@H]3NC(=O)CSC[C@@H](C(=O)NCCOCCOCCOCCNC(=O)COCC(N)=O)NC(=O)[C@H](Cc4ccccc4)NC(=O)[C@@H]4CSSC[C@H](NC3=O)C(=O)N[C@@H](CCCNC(=N)N)C(=O)NCC(=O)N[C@@H](CC(=O)O)C(=O)N4)c3ccc(S(=O)(=O)O)cc3C2(C)CCCCS(=O)(=O)O)=[N+](Cc2ccccc2)c2ccc(S(=O)(=O)[O-])cc21 (stereo partly drawn) [Compound 5] | 46% |  |  |
|  |  | 92.1% | 85.9% | 56.7% | 32.7% | CCN1\C(=C/C=C/C=C/C2=[N+](CCCCCC(=O)NCCOCCOCCOCCNC(=O)COCC(=O)NCCCC[C@@H]3NC(=O)CSC[C@@H](C(=O)NCCOCCOCCOCCNC(=O)COCC(N)=O)NC(=O)[C@H](Cc4ccccc4)NC(=O)[C@@H]4CSSC[C@H](NC3=O)C(=O)N[C@@H](CCCNC(=N)N)C(=O)NCC(=O)N[C@@H](CC(=O)O)C(=O)N4)c3ccc(S(=O)(=O)[O-])cc3C2(C)C)C(C)(C)c2cc(S(=O)(=O)O)ccc21 [Compound 8] | 93% |  |  |
